Measured values from patent US10435388B2, “Selective inhibitors of clinically important mutants of the EGFR tyrosine kinase” (CS PHARMATECH LIMITED, priority 2016, dated 2019).

Tests used:
[1] = test system: A431 cells (WT); experiment: A431 inhibition assay (cell proliferation), Method B; format: cell-based, human; conditions: Homo sapiens, A-431, 72 h, cellular proliferation, several runs
Description: Cell Proliferation Assays—Method B
A431 Inhibition Assay, (Cell Proliferation).
The rest procedure was conducted in the same manner as described above for H1975 cells.

[2] = target: T1, INSR (Homo sapiens, UniProt P06213); experiment: INSR inhibition assay (Caliper EZ Reader); format: biochemical; conditions: enzyme assay
T1 construct: purchased CARNA BIOSCIENCE 08-142

[3] = Mouse in vivo PK study; conditions: male CDI mice
Description: To determine the drug concentration in plasma of NJB-342, NJB-348 and NJB-463 following intravenous and oral administration in male CDI Mice, to get the pharmacokinetic profile and PK parameters
Test animals: healthy male CDI mice (body weight 20-30 g, 18 mice, free access to food and water), provided by Sibeifu laboratory.
Dose Level and dose route: dosed the animals via intravenous injection from tail vein for IV group (1 mg/kg, 5 mL/kg, 10% DMSO/40% PEG400/50% water), dosed the animals via oral gavage for PO group (10 mg/kg, 10 mL/kg, (10% DMSO/40% PEG400/50% water), respectively.
Samples collection: the healthy animals were used, weighed the bodyweight and marked at tail and cage card prior to dosing. Blood samples (0.03 mL per time point) were collected from dorsal metatarsal vein at 0.083, 0.25, 0.5, 1, 2, 4, 8, 24 h post dose for IV group and at 0.25, 0.5, 1, 2, 4, 8, 24 h post dose for PO group, the terminal time point was collected from heart (˜0.3 mL). The blood samples were put into the tube with heparin-Na coated and then put on the cold box, centrifuged at 4° C. 4000 g, 5 minutes immediately after collecting all samples per time point to get plasma. The plasma samples were stored in a freezer at −75±15° C. prior to analysis.

[4] = test system: p-EGFR in PC9 cells (Exon 19 deletion EGFR); experiment: Exon19 deletion EGFR (activating single mutant) PC-9 cellular autophosphorylation assay; format: cell-based, human; conditions: Homo sapiens, PC-9, 2 h, 2 h treatment, ELISA
[5] = test system: p-EGFR in H1975 cells (L858R/T790M double mutant EGFR); conditions: Homo sapiens, NCI-H1975, 2 h, read-out: H1975 IC50 (nM), cellular EGFR autophosphorylation, 2 h treatment, ELISA
[6] = target: T2, IGF-1R (Homo sapiens, UniProt P08069); experiment: IGF-1R inhibition assay (Caliper EZ Reader); format: biochemical; conditions: enzyme assay
T2 construct: purchased CARNA BIOSCIENCE 08-141
Procedure, shortened: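 IGF-1R protein and peptide substrate were preincubated 30 min at RT with compound. Phosphorylated and non-phosphorylated fluorescent peptides were separated by mobility shift, and the read-out is the conversion ratio.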

[7] = test system: p-EGFR in A431 cells (wild type EGFR, EGF stimulated); experiment: Wild type EGFR A431 autophosphorylation inhibition assay (ELISA); format: cell-based, human; conditions: Homo sapiens, A-431, cellular EGFR autophosphorylation, 2 h treatment, EGF stimulation 10 min
Description: Cellular EGFR Autophosphorylation Assays.
Wild Type EGFR A431 Autophosphorylation Inhibition Assay (ELISA).
After 2 hour treatment with test compounds, add 4.5 μL of EGF (1 μg/mL) into each well and stimulate for 10 min. The rest of the procedure was processed in the same manner as described above for H1975 cells.

[8] = test system: H1975 cells (DM); experiment: H1975 inhibition assay (cell proliferation), Method B; format: cell-based; conditions: Homo sapiens, NCI-H1975, 72 h, cellular proliferation, several runs
[9] = test system: PC9 cells (SM); experiment: PC-9 growth inhibition assay (cell proliferation), Method B; format: cell-based, human; conditions: Homo sapiens, PC-9, 72 h, cellular proliferation, several runs

T1 sequence (P06213 989-1382 limits assumed): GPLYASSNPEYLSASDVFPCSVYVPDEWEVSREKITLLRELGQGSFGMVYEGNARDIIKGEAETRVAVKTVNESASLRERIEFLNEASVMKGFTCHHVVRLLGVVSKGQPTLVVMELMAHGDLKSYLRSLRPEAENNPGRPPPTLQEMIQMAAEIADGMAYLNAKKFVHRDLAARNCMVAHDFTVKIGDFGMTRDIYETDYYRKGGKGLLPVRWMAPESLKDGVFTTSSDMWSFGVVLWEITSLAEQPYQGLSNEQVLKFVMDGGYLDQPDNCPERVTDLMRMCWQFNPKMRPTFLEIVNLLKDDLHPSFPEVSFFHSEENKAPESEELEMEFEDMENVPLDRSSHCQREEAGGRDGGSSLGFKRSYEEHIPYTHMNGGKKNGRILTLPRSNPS
T2 sequence (P08069 959-1367 limits assumed): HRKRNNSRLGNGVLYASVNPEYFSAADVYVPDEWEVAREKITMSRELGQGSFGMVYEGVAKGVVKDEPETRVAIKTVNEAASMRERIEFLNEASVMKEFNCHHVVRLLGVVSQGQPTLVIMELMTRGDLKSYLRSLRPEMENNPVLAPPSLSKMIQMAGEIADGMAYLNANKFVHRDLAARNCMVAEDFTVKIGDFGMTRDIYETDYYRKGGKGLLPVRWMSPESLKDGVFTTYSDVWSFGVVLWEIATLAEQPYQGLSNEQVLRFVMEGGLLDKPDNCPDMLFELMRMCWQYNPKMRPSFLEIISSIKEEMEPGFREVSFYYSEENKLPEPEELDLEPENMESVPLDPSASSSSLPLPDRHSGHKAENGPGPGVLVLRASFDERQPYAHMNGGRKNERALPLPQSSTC

IC50 [1]: 396 nM | IC50 [2]: 366 nM | F ([3]; PO 10 mg/kg vs IV 1 mg/kg): 42.1% | clearance ([3]; mouse, plasma, IV 1 mg/kg): 97 mL/min/kg | half-life ([3]; mouse, plasma, IV 1 mg/kg, read-out: T1/2 (IV) (converted)): 1.32 h | AUC ([3]; mouse, plasma, PO 10 mg/kg): 677 ng·h/mL | Cmax ([3]; mouse, plasma, PO 10 mg/kg): 176 ng/mL | IC50 [4]: 3.69 nM | IC50 [5]: 4.19 nM | IC50 [6]: 337 nM | IC50 [7]: 66.3 nM | IC50 [8]: 2.37 nM | IC50 [9]: 2.29 nM
Structure (SMILES): C=CC(=O)Nc1cc(Nc2nccc(-n3nc(N(C)C)c4ccccc43)n2)c(OC)cc1N(C)CCN(C)C [Example 42, N-(5-((4-(3-(Dimethylamino)-1H-indazol-1-yl)pyrimidin-2-yl)amino)-2-((2-(dimethylamino)ethyl)(methyl)amino)-4-methoxyphenyl) acrylamide]
